According to patent publication US20220048988A1, “CELLS EXPRESSING ANTIBODIES TARGETING HUMAN IMMUNODEFICIENCY VIRUS AND METHODS OF USING THE SAME” (priority 2018, published 2022):

Tests used:
[1] = tested on: viruses isolated from quantitative viral outgrowth assay (QVOA) supernatants; experiment: Infected-cell binding with viruses isolated from QVOA supernatants; design: species or system HIV
Source text: (§1) We developed a method to perform paired testing of neutralization and infected-cell binding (predictive of ADCC^6) and applied this to 36 viruses that we isolated from quantitative viral outgrowth assay (QVOA) supernatants, using a panel of 14 clinically relevant bnAbs.

HIV = conditions: in a subset of the population; cited from earlier work
HIV SF162 = experiment: Viral inhibition assay (p24); format: cell-based; conditions: antibody alone, absence of NK cells, n=2 replicates
[2] = tested on: viruses isolated from quantitative viral outgrowth assay (QVOA) supernatants; experiment: Neutralization of viruses isolated from QVOA supernatants; format: cell-based, HIV
Source text: as §1

[3] = tested on: HIV-infected CD4+ T-cells; experiment: Binding of secreted 10-1074 bnAb to HIV-infected CD4+ T-cells (flow cytometry); conditions: virus from latent reservoir of participant OM5334, high MOI (~70% Gag+)
Source text: Binding of secreted 10-1074 bnAb to HIV-Infected CD4^+ T-cells. […] These cells were then stained with a fluorochrome-conjugated anti-human-IgG1 antibody, and analyzed by flow cytometry. […] We therefore performed an additional experiment using a lower multiplicity of infection (MOI) of the HIV molecular clone SF162. […] However, it has been well-established that Ab-binding to infected cells is predictive of ADCC^6.

pseudovirus = experiment: Standard pseudovirus neutralization assay; format: cell-based, HIV
Description: Virus neutralization by secreted 10-1074. We also tested whether the supernatants secreted from TbnAb are capable of neutralizing HIV by using a standard pseudovirus assay. Briefly, supernatants obtained from TbnAbs were diluted five fold and incubated with pseudovirus. Target cells were then added, and a single-round of infection was allowed to proceed for 48 h^1. In certain lines, we observed 20-30% neutralization of virus at this single concentration (data not shown). […] (data not shown). […] Thus, the data support that the 10-1074 in these supernatants is functionally equivalent to purified 10-1074 on a per concentration basis.

non-expressing cells = experiment: HIV binding: non-expressing cells (flow cytometry); conditions: supernatant of transduced cells
[4] = tested on: HIV envelope expressing HeLa cells; experiment: HIV binding: HIV envelope expressing HeLa cells (flow cytometry); conditions: supernatant of transduced cells
Description: HIV envelope expressing HeLa cells were obtained from NIH AIDS Reagent Program (69T1 RevEnv Cells, #3336). HeLa Envelope cells were fixed with 4.2% paraformaldehyde (BD, #554655) for 20 minutes at 4° C. Cells were washed in chilled Facs Buffer (PBS+2% FBS) and incubated in supernatant containing secreted antibody from transduced Jurkat T cells or non-specific antibodies from nontransduced Jurkat T cells for 1 hour at room temperature. Cells were washed an additional two times in Facs Buffer and incubated with goat anti-human IgG (H+L) FITC (Life Technologies, #H10301) for 30 minutes at room temperature.
To test whether the T cell secreted antibodies maintain their ability to recognize HIV envelope, we used HeLa cells expressing Env obtained from the AIDS reagent program.

[5] = target: HIV envelope (Env) expressed on HeLa cells (69T1 RevEnv Cells) (HIV); experiment: cell-based or functional assay
[6] = target: 36 viruses isolated from quantitative viral outgrowth assay (QVOA) supernatants; experiment: cell-based or functional assay

In the case of “10-1074: Monoclonal antibody 10-1074 targets the V3 glycan supersite on the HIV-1 envelope (Env) protein; broadly neutralizing”, the “binding characteristics (breadth and potency)” value ([1]; 36 viruses, panel of 14 bnAbs) is reported as “superior binding characteristics”, the infected cell binding ([1]; OM5162 virus isolate #3) is reported as “lack of 10-1074 binding” and the infected cell binding ([1]; patient OM5162 virus isolate #1) is reported as “binding”. For the same molecule, the “HIV RNA levels” value (HIV) was “transiently decrease HIV RNA levels”, the “HIV p24 (viral inhibition)” value (HIV SF162; FIG. 10A) was 6892.442±168.555 and the “HIV p24 (viral inhibition)” value (HIV SF162; FIG. 10B) was 757.911±163.351. The “HIV p24 (viral inhibition)” value (HIV SF162; FIG. 10C) was 22914.671±2305.507, the viruses potently neutralized ([2]; 36 viruses isolated from QVOA supernatants) was 24/36 and the “median IC50 against reservoir viruses” value ([2]; reservoir viruses) was 0.3 µg/mL. For the same molecule, the “binding to HIV-infected CD4+ T cells” value [3] was “efficient binding” and the “concentration giving 20-30% neutralization” value (pseudovirus; purified antibody curves) was 0.01 to 0.1 µg/mL.

In the case of “TbnAb secreted 10-1074: 10-1074 antibody secreted into supernatants by transduced T cells”, the “binding to HIV-infected CD4+ T cells” value [3] is reported as “specific binding”, the “binding to HIV-infected CD4+ T cells” value ([3]; listed as antibody secreted by HIV specific TbnAb cell lines) is reported as “specifically binds” and the “binding to non-expressing cells” value (non-expressing cells) is reported as “not”. The neutralization of virus (pseudovirus; supernatants diluted five fold (0.03 ug/ml of 10-1074), single-round infection 48 h, certain lines) was 20-30% and the “binding to envelope-expressing cells” value [4] was “bind”.

B1: T cell-secreted 10-1074 antibody from the 10-1074 Ab construct (IgG3 constant region) (antibody, V domains shown)
VH: QVQLQESGPGLVKPSETLSVTCSVSGDSMNNYYWTWIRQSPGKGLEWIGYISDRESATYNPSLNSRVVISRDTSKNQLSLKLNSVTPADTAVYYCATARRGQRIYGVVSFGEFFYYYSMDVWGKGTTVTVSS
VL: SYVRPLSVALGETARISCGRQALGSRAVQWYQHRPGQAPILLIYNNQDRPSGIPERFSGTPDINFGTRATLTISGVEAGDEADYYCHMWDSRSGFSWSFGGATRLTVLV
Molecule B1 has an NK cell killing (ADCC; europium cytotoxicity assay, primary NK cells) [5] of 34.5 and an increase in killing from ADCC [5] of 10.5%.

B2: 10-1074 antibody (purified) (antibody, V domains shown)
VH: B1 VH
VL: SYVRPLSVALGETARISCGRQALGSRAVQWYQHRPGQAPILLIYNNQDRPSGIPERFSGTPDINFGTRATLTISGVEAGDEADYYCHMWDSRSGFSWSFGGATRLTVL
For B2, the median IC50 (neutralization) [6] was 0.3 µg/mL.
